Assay results from PubChem BioAssay AID1963839 (Molecular Pharmacology Branch, DTP, NCI, 2024).

System: 817829-284-R-J1-PDC complex spheroid viability
Assay: Anticancer human tumor 817829-284-R-J1-PDC patient-derived colon adenocarcinoma cell line growth inhibition [POLQ]
Settings: for IC50: curve of first compound; for viability, T/C: stronger effect = lower value
Experimental: Multicellular complex tumor spheroid response to Polymerase (POL) inhibitors (novobiocin, ART-558, RP6685) in combination with a variety of drugs and investigational agents in selected tumor cell lines
The POL inhibitors (novobiocin, ART-558, and RP6685) were evaluated both individually and in combination with standard of care and investigational anticancer small molecules within a complex spheroid model of solid tumors. . Complex spheroids include a stromal component modeled by human endothelial cells (HUVEC) and fibroblasts modeled by human mesenchymal stem cells (MSCs). The concentration ranges selected for each drug and investigational agent were based upon clinically achievable concentrations if the clinical Cmax of the agent was known.
Compounds. The drugs and investigational agents: novobiocin (NSC847541), ART-558 (NSC835418), RP-6685 (NSC848927), peposertib (NSC802822), ceralasertib (NSC780249), elimusertib (NSC800525), camonsertib (NSC841442), AZD-1390 (NSC803789), olaparib (NSC753686), talazoparib (NSC767125), rucaparib (NSC756644), sotorasib (NSC818433), MRTX-1133 (NSC836407), SN-38 (NSC673596), topotecan (NSC609699), epotoside (NSC141540), doxorubicin (NSC123127), gemcitabine (NSC613327), 5-fluorouracil (NSC19893), paclitaxel (NSC125973), vemurafenib (NSC761431), MSA-2 (NSC828583), SN-011 (NSC837082), adavosertib (NSC754352), prexasertib (NSC758257), carboplatin (NSC241240) and oxaliplatin (NSC266046), were obtained from the National Cancer Institute (NCI) Developmental Therapeutics Program Chemical Repository (21). The FDA-approved anticancer drug set is available from the Developmental Therapeutics Program at https://dtp.cancer.gov/organization/dscb/obtaining/. […] The stock solutions were prepared in dimethyl sulfoxide (DMSO, Sigma-Aldrich, St. Louis, MO, cat. D2650), except for the platinum compounds which were prepared in saline (Quality Biological, Gaithersburg, MD, cat. 114-055-101), at 800-fold the tested concentration and stored at -70 degrees C prior to their use. All drugs and investigational agents were tested over a range starting from a high concentration at or near the clinical Cmax and decreasing in half-log increments. If the clinical Cmax for an agent had not been determined, the highest concentration tested was 10 microM, except for SN-38, which was tested at a high concentration of 1 microM.
Cell Culture. All cells were maintained in an incubator at 37 degrees C and 5% CO2 with 95% humidity. The PDC lines were cultured according to standard operating procedures established by the NCI PDMR (https://pdmr.cancer.gov). Table 3 of the manuscript, lists the cell lines along with the number of the three cell types plated to form the mct-spheroids and media for tumor cell growth. After thawing, all PDC lines, except 997537-175-T-J1-PDC and 415267-285-R-J2-PDC, were cultured in Matrigel-coated flasks prepared with a working solution of 1X Ham's F-12 nutrient mix, without supplementation (Thermo Fisher Scientific, cat. 11765054), 100 U/mL penicillin-streptomycin (Thermo Fisher Scientific, cat. 15140122), and 2.5% Matrigel (Corning Inc., Corning, NY, cat. 354248) for the first three passages. The two PDC lines 997537-175-T-J1-PDC and 415267-285-R-J2-PDC were cultured on uncoated flasks. The 857933-349-R-J2-PDC line was cultured in 6C/Colon 1B media containing advanced DMEM/F-12 (Thermo Fisher Scientific, cat. 12634028), 10 mM HEPES (Thermo Fisher Scientific, cat. 15630080), 1X GlutaMAX supplement (Thermo Fisher Scientific, cat. 35050061), 0.1 mg/mL primocin (InvivoGen, San Diego, CA, cat. ant-pm-2), 10% defined fetal bovine serum, heat inactivated (HyClone Laboratories Inc., Logan, UT, cat. SH30070.03HI), 50% L-WRN conditioned media (ATCC, cat. CRL-3276), 1.25 mM N-Acetyl-L-cysteine (Sigma-Aldrich, cat. A9165), 10 mM nicotinamide (Sigma-Aldrich, cat. N0636), 1X B-27 supplement (Thermo Fisher Scientific, cat. 17504044), 1X N-2 supplement (Thermo Fisher Scientific, cat. […]

[1] = second compound 0.0316 µM, first compound 0.00316 µM
[2] = second compound 0.0316 µM, first compound 0.01 µM
[3] = second compound 0.0316 µM, first compound 0.0316 µM
[4] = second compound 0.0316 µM, first compound 0.1 µM
[5] = second compound 0.1 µM, first compound 0.00316 µM
[6] = second compound 0.1 µM, first compound 0.01 µM
[7] = second compound 0.1 µM, first compound 0.0316 µM
[8] = second compound 0.1 µM, first compound 0.1 µM
[9] = second compound 0.316 µM, first compound 0.00316 µM
[10] = second compound 0.316 µM, first compound 0.01 µM
[11] = second compound 0.316 µM, first compound 0.0316 µM
[12] = second compound 0.316 µM, first compound 0.1 µM
[13] = second compound 1 µM, first compound 0.00316 µM
[14] = second compound 1 µM, first compound 0.01 µM
[15] = second compound 1 µM, first compound 0.0316 µM
[16] = second compound 1 µM, first compound 0.1 µM
[17] = second compound 3.16 µM, first compound 0.00316 µM
[18] = second compound 3.16 µM, first compound 0.01 µM
[19] = second compound 3.16 µM, first compound 0.0316 µM
[20] = second compound 3.16 µM, first compound 0.1 µM
[21] = second compound 10 µM, first compound 0.00316 µM
[22] = second compound 10 µM, first compound 0.01 µM
[23] = second compound 10 µM, first compound 0.0316 µM
[24] = second compound 10 µM, first compound 0.1 µM
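Further: spheroids exposed to compounds for 7 days.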
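Wherever viability, T/C is given: 100% = DMSO vehicle-treated spheroids.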

## CC[C@@]1(O)C(=O)OCc2c1cc1n(c2=O)Cc2cc3c(CN(C)C)c(O)ccc3nc2-1 + Nc1ccc(C#CCN(C(=O)Cc2ncc(C(F)(F)F)cc2C(F)(F)F)c2ccc(F)cc2)nn1
Second compound 0.0316 µM
  IC50: 8.46 nM
Second compound 0.1 µM
  IC50: 9.72 nM
Second compound 0.316 µM
  IC50: 11 nM
Second compound 1 µM
  IC50: 8.84 nM
Second compound 3.16 µM
  IC50: 12 nM
Second compound 10 µM
  IC50: 6.8 nM
Second compound 0.0316 µM, first compound 0.000316 µM
  viability, T/C: 91.3%
Second compound 0.0316 µM, first compound 0.001 µM
  viability, T/C: 99%
[1]
  viability, T/C: 85.9%
[2]
  viability, T/C: 43.2%
[3]
  viability, T/C: 24.2%
[4]
  viability, T/C: 15.9%
Second compound 0.1 µM, first compound 0.000316 µM
  viability, T/C: 90.2%
Second compound 0.1 µM, first compound 0.001 µM
  viability, T/C: 86%
[5]
  viability, T/C: 88.2%
[6]
  viability, T/C: 48.9%
[7]
  viability, T/C: 20.9%
[8]
  viability, T/C: 17.3%
Second compound 0.316 µM, first compound 0.000316 µM
  viability, T/C: 106%
Second compound 0.316 µM, first compound 0.001 µM
  viability, T/C: 93.3%
[9]
  viability, T/C: 85%
[10]
  viability, T/C: 54.4%
[11]
  viability, T/C: 21.3%
[12]
  viability, T/C: 17.9%
Second compound 1 µM, first compound 0.000316 µM
  viability, T/C: 111%
Second compound 1 µM, first compound 0.001 µM
  viability, T/C: 115%
[13]
  viability, T/C: 86.6%
[14]
  viability, T/C: 45.5%
[15]
  viability, T/C: 24.4%
[16]
  viability, T/C: 15.7%
Second compound 3.16 µM, first compound 0.000316 µM
  viability, T/C: 95.1%
Second compound 3.16 µM, first compound 0.001 µM
  viability, T/C: 94.3%
[17]
  viability, T/C: 82%
[18]
  viability, T/C: 57.2%
[19]
  viability, T/C: 20.1%
[20]
  viability, T/C: 13.9%
Second compound 10 µM, first compound 0.000316 µM
  viability, T/C: 93.8%
Second compound 10 µM, first compound 0.001 µM
  viability, T/C: 91.2%
[21]
  viability, T/C: 62.1%
[22]
  viability, T/C: 43.2%
[23]
  viability, T/C: 25.6%
[24]
  viability, T/C: 15.1%

## CCc1c2c(nc3ccc(O)cc13)-c1cc3c(c(=O)n1C2)COC(=O)[C@]3(O)CC + Cc1cccc(N(C)C(=O)C2C(O)CCN2c2nc(C)cc(C(F)(F)F)c2C#N)c1
Second compound 0.0316 µM
  IC50: < 3.16 nM
Second compound 0.1 µM
  IC50: < 3.16 nM
Second compound 0.316 µM
  IC50: < 3.16 nM
Second compound 1 µM
  IC50: < 3.16 nM
Second compound 3.16 µM
  IC50: < 3.16 nM
Second compound 10 µM
  IC50: < 3.16 nM
[1]
  viability, T/C: 25.3%
[2]
  viability, T/C: 19%
[3]
  viability, T/C: 13.3%
[4]
  viability, T/C: 7.02%
Second compound 0.0316 µM, first compound 0.316 µM
  viability, T/C: 5.47%
Second compound 0.0316 µM, first compound 1 µM
  viability, T/C: 2.88%
[5]
  viability, T/C: 24.9%
[6]
  viability, T/C: 16.9%
[7]
  viability, T/C: 11.1%
[8]
  viability, T/C: 8.13%
Second compound 0.1 µM, first compound 0.316 µM
  viability, T/C: 5.27%
Second compound 0.1 µM, first compound 1 µM
  viability, T/C: 3.6%
[9]
  viability, T/C: 16.9%
[10]
  viability, T/C: 15.3%
[11]
  viability, T/C: 11.9%
[12]
  viability, T/C: 9.03%
Second compound 0.316 µM, first compound 0.316 µM
  viability, T/C: 5.25%
Second compound 0.316 µM, first compound 1 µM
  viability, T/C: 3.06%
[13]
  viability, T/C: 24.7%
[14]
  viability, T/C: 18.8%
[15]
  viability, T/C: 11.3%
[16]
  viability, T/C: 5.74%
Second compound 1 µM, first compound 0.316 µM
  viability, T/C: 5.46%
Second compound 1 µM, first compound 1 µM
  viability, T/C: 3.33%
[17]
  viability, T/C: 19.6%
[18]
  viability, T/C: 15.9%
[19]
  viability, T/C: 12.5%
[20]
  viability, T/C: 8.19%
Second compound 3.16 µM, first compound 0.316 µM
  viability, T/C: 4.73%
Second compound 3.16 µM, first compound 1 µM
  viability, T/C: 2.56%
[21]
  viability, T/C: 20.8%
[22]
  viability, T/C: 17%
[23]
  viability, T/C: 11.3%
[24]
  viability, T/C: 7.07%
Second compound 10 µM, first compound 0.316 µM
  viability, T/C: 5.05%
Second compound 10 µM, first compound 1 µM
  viability, T/C: 2.83%
